The values that follow come from patent US9801840B1, “Pharmaceutical composition and use thereof” (priority 2016, dated 2017).

A value given as a limit tells only on which side of the number the result lay.

One series concerns FAK (Tyr397). The experiment in a line: Immunoprecipitation and Western blot analysis, Huh7 cell lines. The class given is cell-based. Conditions: Huh7, 15 mins treatment. For orientation: A western blot detects proteins with antibodies after separation by electrophoresis.
Series [1] relates to Huh7 cell lines. The experiment in a line: Antitumor response in vivo, Huh7 xenograft. Details: species or system mice. The note with it: 5 mg/kg/day intraperitoneal. As to the method: All animal experiments were conducted according to the guidelines approved by the Institutional Animal Care and Use Committees of the College of Medicine, National Taiwan University and National Taiwan Normal University. The study was approved by the Animal Care and Use Committees of the College of Medicine, National Taiwan University and National Taiwan Normal University. Male NOD/SCID mice (4-6 weeks old) (obtained from BioLASCO Taiwan Co., Ltd) were housed into individually-ventilated cages with free access to food and drinking water. […] The tumor volume was calculated by the following equation: tumor volume(mm^3)=(length [mm])×(width [mm])^2×0.5.

The subject of series [2] is Huh7 cell lines. The experiment in a line: Confocal microscopy analysis of p-FAK (Tyr397) and F-actin. The note with it: Huh7, 6 hour. The format is cell-based. How it is done: Huh7 cell lines cultured by the method described in Example 2 were seeded on a 22×22 cover slip and treated with 0.1% DMSO (control) or CA for 6 hour. The cells were washed, fixed, and permeabilized with 0.25% Triton X-100 for 10 mins. Next, the cover slips were incubated with p-FAK (Tyr397) primary antibody overnight, and then stained with Alexa488 (anti-rabbit) and Alexa568-phallodin (20 mU/mL) for 1 hour in darkness. Finally, the samples were counterstained for nuclei with DAPI (10 ng/mL) for 10 mins. The images were captured and analyzed using the Leica TCS SP5 Spectral Confocal System. The actin filament intensity was measured by ImageJ (NIH) and calculated by the following formula described by Bennett et al. (2013): Corrected total cell fluorescence (CTCF)=Integrated Density−(Area of selected cell×Mean fluorescence of background readings).

For a further series, the system named is VEGFR2. Put plainly: Immunoprecipitation and Western blot analysis, Huh7 cell lines. The class given is cell-based. Conditions: Huh7, 15 mins treatment, vs control. As to the method: The lysates were then sonicated and centrifuged. The supernatant was kept and incubated with anti-VEGFR1 antibody, anti-VEGFR2 antibody, and anti-VEGFR3 antibody (Santa Cruz Biotechnology, Inc.) overnight at 4° C. The immune-complexes were washed and eluted, and then analyzed by Western blotting.

For the next series, the system named is Src. The series is described as above. The class given is cell-based. Conditions: Huh7, 15 mins treatment.
The subject of series [3] is Hep3B cell lines. Put plainly: Cytotoxicity assay (MTT). The class given is cell-based. The note with it: 24 hours. As to the method: (§1) The HCC cell lines: Huh7, HepG2 and Hep3B were obtained from Japanese Collection of Research Bioresources (National Institute of Health Sciences; Japan, JCRB) and maintained in Dulbecco's Modified Eagle's Medium-High Glucose (Invitrogen) medium with 10% fetal bovine serum (FBS), 2 mM L-glutamine (Invitrogen), and 100 μg/mL penicillin-streptomycin (Invitrogen). Cells were cultured in a humidified atmosphere in 5% CO2 at 37° C. A well-known cytotoxicity assays in the art, for example, the assay described by Wang et al. can be performed to study the cytotoxicity of the pharmaceutical composition provided by the present invention. […] The number of viable cells was determined by MTT assay.

Series [4] concerns HepG2 cell lines. The experiment in a line: Cytotoxicity assay (MTT). The format is cell-based. Conditions: HepG2, 24 hours. How it is done: as §1
Another series in a line: Cytotoxicity assay (MTT). The class given is cell-based. Conditions: human, Huh7 cells (HCC cell line), Huh7, 24 hours. As to the method:
as §1

Series [5] addresses T1, VEGFR2 (kinase insert domain receptor, KDR) (Homo sapiens, UniProt P35968).
T1 construct: purchased Promega V2681
Put plainly: ADP-Glo kinase activity assay. The note with it: 10 μM ATP, read-out: concentration inhibiting VEGFR2 activity by 50%. The class given is biochemical. How it is done: Briefly, CA was first diluted with a kinase reaction buffer solution at a 1:2 dilution ratio. Three nanograms of kinase insert domain receptor (KDR, #V2681, Promega) were added and incubated for 10 mins. Then, 0.1 μg/μL substrate and 10 μM ATP were added and incubated for 1 hour at room temperature. Next, 25 μL of ADP-Glo reagent was added to the mixture and incubated at room temperature for 40 mins. Finally, 50 μL of a kinase detection reagent was added to introduce luciferase and samples were measured.
(In general: ADP-Glo turns the ADP formed in a reaction into a luminescent signal.)

Series [6] concerns Huh7 cell lines. The experiment in a line: G-actin/F-actin activity assay. Conditions: Huh7, 6 hours, vs control. The format is cell-based. How it is done: Actin activity assay can be conducted by known methods, for example, the method described in Shum et al. (2011). Briefly, Huh7 cell lines were cultured by the method described in Example 2 and treated with 0.1% DMSO (control) or CA for 6 hours and incubated in stabilizing buffer (1% Triton X-100, 1 μg phalloidin, and protease inhibitor cocktail) at room temperature for 5 mins. Cell lysates were collected, followed by centrifugation at 100,000×g at 37° C. for 1 hour. The supernatant was removed and saved as the G-actin fraction. The pellet was washed twice with PBS and dissolved in dissolving buffer solution (1% Triton X-100, 2% SDS, and protease inhibitor cocktail) by sonication, the mixture was put on ice for 1 h, and saved as the F-actin fraction.

The test system of the next series is cdc42. The experiment in a line: Rho GTPase activity assay (GST pull-down, Western blot), Huh7 cell lines. The note with it: Huh7, 6 hours. The class given is cell-based. How it is done:
Huh7 cell lines were cultured by the method described in Example 2 and treated with 0.1% DMSO (control) or CA for 6 hours and then collected. After the Huh7 cell lines were lysed, the cell lysates (500 μg) were combined with purified GST fusion protein which has conjugated with Rac1, RhoA, or cdc42 binding domain (PAK-PBD for Rac1 and cdc42, Raf-RBD for RhoA) and incubated at 4° C. overnight. The immune-complex was precipitated and then centrifuged at 14,000 rpm for 30 mins. The samples were washed with RIPA buffer solution, boiled with SDS sample buffer solution, and analyzed by Western blot analysis.

For series [7], the system named is Hep3B cell lines. The experiment in a line: Transwell migration assay. The format is cell-based. Conditions: 1-16 μM, 16 hours. How it is done: (§2) Then, the cells were seeded into Transwell inserts (8 μm pore; BD Biosciences). The mediums were incubated for 16 hours, and the migrated cells were fixed, stained with crystal violet, and quantified.
(§3) Except for the compound represented by formula (1), the pharmaceutical composition can further comprises at least one known anticancer agent. […] The software was used to estimate the combination index (CI) and Fa (fraction affected by drugs) and to interpret the combined effect of drugs. CI<1, CI=1, and CI>1 respectively indicate synergistic, additive, and antagonistic effects.

In series [8] the test system is HepG2 cell lines. Put plainly: Transwell migration assay. The note with it: HepG2, 1-16 μM, 16 hours. The format is cell-based. How it is done:
as §2, §3

In series [9] the test system is Huh7 cell lines. The experiment in a line: Transwell migration assay. The format is cell-based. As to the method: as §2, §3
For a further series, the system named is p-VEGFR2 (Tyr951). The experiment in a line: Immunohistochemistry of excised xenograft tumors. The class given is in vivo. Conditions: HCC xenograft mice, CA 5 mg/kg/day. From the text: (§4) Tumor samples obtained from experiment 4-1 were fixed in 10% […], embedded in paraffin, and sectioned. The tissue sections were then subjected to immunohistochemical staining with the Novolink Polymer Detection System (Leica Biosystems). The sections were stained for p-VEGFR2 (Tyr951, Cell Signaling Technology), Ki-67 and p-FAK (Tyr397) (Santa Cruz Biotechnology), and the nuclei were counterstained with hematoxylin.

A further series relates to p-FAK (Tyr397). Put plainly: Immunohistochemistry of excised xenograft tumors. The class given is in vivo. Conditions: HCC xenograft mice, CA 5 mg/kg/day.
Text: as §4

The next series relates to FAK. The note with it: xenograft model.

T1 sequence (P35968 20-1356): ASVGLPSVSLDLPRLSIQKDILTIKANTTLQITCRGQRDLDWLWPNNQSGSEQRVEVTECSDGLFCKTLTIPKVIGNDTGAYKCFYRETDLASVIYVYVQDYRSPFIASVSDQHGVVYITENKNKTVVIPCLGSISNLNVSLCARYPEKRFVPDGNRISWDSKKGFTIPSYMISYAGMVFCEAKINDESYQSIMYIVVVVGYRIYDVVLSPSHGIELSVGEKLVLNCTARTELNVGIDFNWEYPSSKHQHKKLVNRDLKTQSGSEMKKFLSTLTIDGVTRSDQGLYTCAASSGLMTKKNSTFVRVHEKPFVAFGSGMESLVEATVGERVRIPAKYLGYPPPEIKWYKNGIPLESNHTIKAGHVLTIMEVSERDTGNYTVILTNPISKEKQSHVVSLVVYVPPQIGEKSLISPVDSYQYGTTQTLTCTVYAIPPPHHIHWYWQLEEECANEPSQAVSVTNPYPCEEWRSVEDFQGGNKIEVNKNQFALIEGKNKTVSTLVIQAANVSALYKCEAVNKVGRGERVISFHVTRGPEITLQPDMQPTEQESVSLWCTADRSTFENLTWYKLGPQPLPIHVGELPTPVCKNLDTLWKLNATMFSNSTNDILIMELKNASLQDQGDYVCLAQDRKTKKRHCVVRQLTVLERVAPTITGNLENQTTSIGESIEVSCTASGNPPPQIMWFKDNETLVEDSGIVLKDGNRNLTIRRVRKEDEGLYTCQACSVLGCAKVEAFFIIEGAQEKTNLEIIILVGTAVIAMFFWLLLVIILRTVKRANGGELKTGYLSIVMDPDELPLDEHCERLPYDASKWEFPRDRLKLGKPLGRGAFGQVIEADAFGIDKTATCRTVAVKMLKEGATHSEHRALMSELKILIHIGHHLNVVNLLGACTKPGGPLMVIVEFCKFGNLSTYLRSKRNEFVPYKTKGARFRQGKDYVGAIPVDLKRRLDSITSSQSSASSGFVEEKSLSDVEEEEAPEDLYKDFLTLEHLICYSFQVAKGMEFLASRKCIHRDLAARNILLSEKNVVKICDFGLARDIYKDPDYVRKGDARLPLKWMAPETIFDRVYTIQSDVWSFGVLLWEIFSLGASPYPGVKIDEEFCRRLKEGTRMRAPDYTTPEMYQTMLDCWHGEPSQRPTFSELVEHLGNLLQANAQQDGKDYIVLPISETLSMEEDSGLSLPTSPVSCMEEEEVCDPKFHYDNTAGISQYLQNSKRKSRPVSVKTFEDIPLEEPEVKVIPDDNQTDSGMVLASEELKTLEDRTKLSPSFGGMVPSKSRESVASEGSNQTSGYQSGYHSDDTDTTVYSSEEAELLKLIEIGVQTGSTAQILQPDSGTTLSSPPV

Turning to `C[C@H]1[C@H](C)CC[C@]2(C(=O)O)CC[C@]3(C)C(=CC[C@@H]4[C@@]5(C)C[C@@H](O)[C@H](O)C(C)(C)[C@@H]5CC[C@]43C)[C@H]12` [CA, corosolic acid], the “phosphorylation level of FAK (Tyr397)” value with FAK (Tyr397) was “down-regulated”. Further, the “reduction in tumor mass as compared with the control group” value in the series with Huh7 cell lines [1] (21 days) is 85%. Moreover, the “volumes of the tumor” value with Huh7 cell lines [1] (after 21-day treatment) amounted to 63±19 mm^3. Also, the “co-localization of phosphorylation of FAK (Tyr397) and F-actin on the filopodium” value with Huh7 cell lines [2] is reported as “decreases”. For the same compound, the “phosphorylation level of VEGFR2” value in the series with VEGFR2 is on record as “lower”. For the same compound, in the series on Src, the “phosphorylation level of Src” value is “down-regulated”. The cytotoxicity entry in the series on Hep3B cell lines [3] and with HepG2 cell lines [4] was “lower cytotoxicity” each time. The IC50 at 24 h in “Cytotoxicity assay (MTT)” came out at 50 µM. Moreover, the IC50 is roughly 0.95 µM in series [5] and 2 µM in the series with cdc42 (Homo sapiens, Huh-7, read-out: concentration reducing the activity of cdc42 by 50%). In the series on Huh7 cell lines [6], the “ratio of F-actin/G-actin (polymer/monomer)” value is “reduces”. Further, the “activated cdc42” value in the series on cdc42 is listed as “significantly down-regulated”. Also, the inhibition of migration entry is given as “effectively inhibited the migration” with Hep3B cell lines [7]; “effectively inhibited the migration” with HepG2 cell lines [8]; “effectively inhibited the migration” in the series with Huh7 cell lines [9] (Huh7, 1-16 μM, 16 hours). For the same compound, the “IC50 cytotoxicity/IC50 migration” value in the series on Huh7 cell lines [9] (HCC cell lines) is recorded as no less than 20. In addition, the “phosphorylation of VEGFR2 in tumor (immunohistochemistry)” value in the series with p-VEGFR2 (Tyr951) was “reduced phosphorylation of both VEGFR2 and FAK significantly”. The “phosphorylation of FAK in tumor (immunohistochemistry)” value in the series on p-FAK (Tyr397) is “reduced phosphorylation of both VEGFR2 and FAK significantly”.
For the compound `CNC(=O)c1cc(Oc2ccc(NC(=O)Nc3ccc(Cl)c(C(F)(F)F)c3)cc2)ccn1` [sorafenib], in the series with FAK, the “phosphorylation level / activation of FAK kinase in the tumor in the mice” value was “didn't show any inhibitory effect”.
Take `C[C@H]1[C@H](C)CC[C@]2(C(=O)O)CC[C@]3(C)C(=CC[C@@H]4[C@@]5(C)CC[C@H](O)C(C)(C)[C@@H]5CC[C@]43C)[C@H]12` [ursolic acid, 3β-hydroxyurs-12-ursen-28-ic acid, reference compound]: the “inhibitory activity to cell migration (FIG. 2D comparison)” value in the series on Huh7 cell lines [9] (Huh7, CA vs sorafenib vs ursolic acid) was “did not show significant inhibitory activity”.
